Converted amounts (≈) assume the structure as drawn. Read-outs that look alike come from different tables or passages of the source. Each block holds one molecule with its values, some of them ahead of it. Non-standard residues stand in square brackets, D forms with d. Residues, ends and D or L forms follow the SMILES beside them. *: point of attachment. Palmitoyl = CCCCCCCCCCCCCCCC(=O)*; Lauroyl = CCCCCCCCCCCC(=O)*
Experiments:
Format in all cases: cell-based
[1] = test system: Acinetobacter baumannii ATCC 19606
Method: (§1) The antibacterial activity of the lipopeptides was examined in sterile 96-well plates (Nunc F96 microtiter plates) in a final volume of 100 μl as follows: Aliquots (50 μl) of a suspension containing bacteria at concentration of 1×10^6 Colony-Forming Units (CFU)/ml in culture LB (Lauria broth) medium (pH 7.4 or pH 5.5) were added to 50 μl of water containing the lipopeptide in serial 2-fold dilutions in water. Adjustment of the pH was done by diluted solutions of HCl and NaOH Inhibition of growth was determined by measuring the absorbance at 600 nm with a Microplate autoreader E1309 (Bio-Tek Instruments), after an incubation time of 18-20 h at 37° C. Antibacterial activities were expressed as the minimal inhibitory concentration (MIC), the concentration at which 100% inhibition of growth was observed after 18-20 h of incubation. The bacteria used were: Escherichia coli ATCC 25922, Acinetobacter baumannii ATCC 19606, Pseudomonas aeruginosa ATCC 27853, Staphylococcus aureus ATCC 6538P, Enterococcus faecalis ATCC 29212, Enterobacter cloacae ATCC 49141. The antibacterial activity of lipopeptides was also examined against resistant bacteria: methicilin-resistant Staphylococcus aureus (MRSA) ATCC 700698 and vancomycin-resistant Enterococcus faecium (VRE) ATCC 700221. If not indicated otherwise, the bacterial growth was detected at pH 7.4.

[2] = test system: Staphylococcus aureus ATCC 6538P
Method: as §1

[3] = test system: Pseudomonas aeruginosa ATCC 27853
Method: as §1

[4] = test system: Candida albicans ATCC 10231; assay: microbe, parasite or virus in culture
Method: (§2) The antifungal activity of the lipopeptides was examined in sterile 96-well plates (Nunc F96 microtiter plates) in a final volume of 200 μL as follows: 100 µl of a suspension containing fungi at a concentration of 1×10^4 Colony-Forming Units (CFU)/ml in culture medium (RPMI 1640, 0.165 M MOPS with L-glutamine, without NaHCO3) at pH 7.4 or pH 5.5 (adjustment of the pH was done by diluted solutions of HCl and NaOH) were added to 100 μl of water containing the peptide in serial 2-fold dilutions in water. The fungi were incubated in the presence of the lipopeptides for 24-48 h at 35° C. in a Binder KB115 incubator under agitation. Growth inhibition was determined by measuring the absorbance at 620 nm with a Microplate autoreader E1309 (Bio-Tek Instruments). Antifungal activity is expressed as the minimal inhibitory concentration (MIC), the concentration at which 100% inhibition of fungi growth was observed after the incubation time mentioned above. The fungi used were: Aspergillus niger ATCC 9642, Candida albicans ATCC 10231 and Cryptococcus neoformans ATCC 66031. If not indicated otherwise, the fungi growth was detected at pH 7.4.

[5] = test system: Aspergillus fumigatus ATCC 26430; assay: microbe, parasite or virus in culture
[6] = test system: Cryptococcus neoformans ATCC MYA-422; assay: microbe, parasite or virus in culture; details: ATCC MYA-422, pH 7.4; read-out: Minimal Inhibitory Concentration, Cyrptococcus neoformans (ATCC MYA-422)
E. coli D21 = test system: E. coli D21
[7] = test system: Escherichia coli ATCC 25922
Method: as §1

[8] = test system: Cryptococcus neoformans ATCC 66031; assay: microbe, parasite or virus in culture
Method: as §2

[9] = ATCC 10231, pH 7.4, read-out: Minimal Inhibitory Concentration, Candida Albicans (ATCC 10231)
[10] = ATCC 26430, pH 7.4, read-out: Minimal Inhibitory Concentration, Aspergillus Fomigatus (ATCC 26430)

Structure (SMILES): CCCCCCCCCCCCCCCC(=O)N[C@@H](CCC(=O)O)C(=O)N[C@@H](CCCCN)C(=O)N[C@H](CCCCN)C(=O)N[C@@H](CCCCN)C(N)=O [PA-EKKK, Palmitoyl-Glu-Lys-D-Lys-Lys-NH2] (Palmitoyl-EK[dK]K-NH2)
Minimal Inhibitory Concentration, A. baumannii ATCC 19606 ([1]; ATCC 19606, pH 7.4): >100 µM | Minimal Inhibitory Concentration, S. aureus ATCC 6538P ([2]; ATCC 6538, pH 7.4): 12.5 µM | Minimal Inhibitory Concentration, P. aeruginosa ATCC 27853 ([3]; ATCC 27853, pH 7.4): >100 µM | MIC [4, 9]: 25 µM (≈ 19.2 µg/mL) | MIC [5, 10]: 12.5 µM (≈ 9.61 µg/mL) | MIC [6]: 6.25 µM (≈ 4.81 µg/mL) | Minimal Inhibitory Concentration, E. coli-D21 (E. coli D21; D21, pH 7.4): 25 µM

Structure (SMILES): CCCCCCCCCCCCCCCC(=O)N[C@@H](CCCCN)C(=O)N[C@@H](C)C(=O)N[C@H](C)C(=O)N[C@@H](CCCCN)C(N)=O [PA-KAAK, Palmitoyl-Lys-Ala-D-Ala-Lys-NH2] (Palmitoyl-KA[dA]K-NH2)
Minimal Inhibitory Concentration, A. baumannii ATCC 19606 ([1]; ATCC 19606, pH 7.4): 100 µM | Minimal Inhibitory Concentration, S. aureus ATCC 6538P ([2]; ATCC 6538, pH 7.4): 6.25 µM | Minimal Inhibitory Concentration, P. aeruginosa ATCC 27853 ([3]; ATCC 27853, pH 7.4): 100 µM | MIC [4, 9]: 25 µM (≈ 16.3 µg/mL) | MIC [5, 10]: 12.5 µM (≈ 8.17 µg/mL) | MIC [6]: 3.12 µM (≈ 2.04 µg/mL) | Minimal Inhibitory Concentration, E. coli-D21 (E. coli D21; D21, pH 7.4): 6.25 µM

Structure (SMILES): CCCCCCCCCCCC(=O)N[C@H](CC(C)C)C(=O)N[C@@H](CCCNC(=N)N)C(=O)N[C@@H](Cc1c[nH]cn1)C(=O)N[C@H](CC(C)C)C(=O)N[C@H](CC(C)C)C(=O)N[C@@H](CCCNC(=N)N)C(=O)N[C@@H](Cc1c[nH]cn1)C(=O)N[C@H](CC(C)C)C(=O)N[C@H](CC(C)C)C(=O)N[C@@H](CCCNC(=N)N)C(=O)N[C@@H](Cc1c[nH]cn1)C(=O)N[C@H](CC(C)C)C(N)=O [lipopeptide 27, (CH3-(CH2)10-CO-)-D-Leu-Arg-His-D-Leu-D-Leu-Arg-His-D-Leu-D-Leu-Arg-His-D-Leu-NH2] (Lauroyl-[dL]RH[dL][dL]RH[dL][dL]RH[dL]-NH2)
Minimal inhibitory concentrations, A. baumannii ATCC 19606 ([1]; ATCC 19606, pH 5.5): >100 µM | Minimal inhibitory concentrations, A. baumannii ATCC 19606 ([1]; ATCC 19606, pH 7.4): 100 µM (≈ 176 µg/mL) | Minimal inhibitory concentrations, E. Coli ATCC 25922 ([7]; ATCC 25922, pH 5.5): 100 µM (≈ 176 µg/mL) | Minimal inhibitory concentrations, E. Coli ATCC 25922 ([7]; ATCC 25922, pH 7.4): 100 µM (≈ 176 µg/mL) | Minimal inhibitory concentrations, S. aureus II ATCC 6538P ([2]; ATCC 6538, pH 5.5): 100 µM (≈ 176 µg/mL) | Minimal inhibitory concentrations, S. aureus II ATCC 6538P ([2]; ATCC 6538, pH 7.4): 100 µM (≈ 176 µg/mL) | Minimal inhibitory concentrations, P. Aeruginosa ATCC 27853 ([3]; ATCC 27853, pH 5.5): 100 µM (≈ 176 µg/mL) | Minimal inhibitory concentrations, P. Aeruginosa ATCC 27853 ([3]; ATCC 27853, pH 7.4): 100 µM (≈ 176 µg/mL) | MIC ([4]; ATCC 10231, pH 5.5, read-out: Minimal inhibitory concentrations, C. Albicans With serum): >100 µM | MIC ([4]; ATCC 10231, pH 5.5, read-out: Minimal inhibitory concentrations, C. Albicans Without serum): 25 µM (≈ 44 µg/mL) | MIC ([4]; ATCC 10231, pH 7.4, read-out: Minimal inhibitory concentrations, C. Albicans With serum): >100 µM | MIC ([4]; ATCC 10231, pH 7.4, read-out: Minimal inhibitory concentrations, C. Albicans Without serum): 12.5 µM (≈ 22 µg/mL) | MIC ([8]; ATCC 66031, pH 5.5, read-out: Minimal inhibitory concentrations, C. Neofor. With serum): 25 µM (≈ 44 µg/mL) | MIC ([8]; ATCC 66031, pH 5.5, read-out: Minimal inhibitory concentrations, C. Neofor. Without serum): 1.56 µM (≈ 2.74 µg/mL) | MIC ([8]; ATCC 66031, pH 7.4, read-out: Minimal inhibitory concentrations, C. Neofor. With serum): 25 µM (≈ 44 µg/mL) | MIC ([8]; ATCC 66031, pH 7.4, read-out: Minimal inhibitory concentrations, C. Neofor. Without serum): 3.125 µM (≈ 5.49 µg/mL) | MIC ([5]; ATCC 26430, pH 5.5, read-out: Minimal inhibitory concentrations, A. Fumig. With serum): 100 µM (≈ 176 µg/mL) | MIC ([5]; ATCC 26430, pH 5.5, read-out: Minimal inhibitory concentrations, A. Fumig. Without serum): 6.25 µM (≈ 11 µg/mL) | MIC ([5]; ATCC 26430, pH 7.4, read-out: Minimal inhibitory concentrations, A. Fumig. With serum): 100 µM (≈ 176 µg/mL) | MIC ([5]; ATCC 26430, pH 7.4, read-out: Minimal inhibitory concentrations, A. Fumig. Without serum): 25 µM (≈ 44 µg/mL) | Minimal inhibitory concentrations, E. Coli D21 (E. coli D21; D21, pH 5.5): 100 µM (≈ 176 µg/mL) | Minimal inhibitory concentrations, E. Coli D21 (E. coli D21; D21, pH 7.4): 100 µM (≈ 176 µg/mL)

Second part, led by results:

MIC [4, 9]: 50 µM (≈ 38.5 µg/mL) | MIC [5, 10]: 50 µM (≈ 38.5 µg/mL) | MIC [6]: 12.5 µM (≈ 9.61 µg/mL)
Structure (SMILES): CCCCCCCCCCCCCCCC(=O)N[C@@H](CCCCN)C(=O)N[C@H](CCCCN)C(=O)N[C@@H](CCC(=O)O)C(=O)N[C@@H](CCCCN)C(N)=O [PA-KKEK, Palmitoyl-Lys-D-Lys-Glu-Lys-NH2] (Palmitoyl-K[dK]EK-NH2)
Minimal Inhibitory Concentration, A. baumannii ATCC 19606 ([1]; ATCC 19606, pH 7.4): 100 µM | Minimal Inhibitory Concentration, S. aureus ATCC 6538P ([2]; ATCC 6538, pH 7.4): 25 µM | Minimal Inhibitory Concentration, P. aeruginosa ATCC 27853 ([3]; ATCC 27853, pH 7.4): 100 µM | Minimal Inhibitory Concentration, E. coli-D21 (E. coli D21; D21, pH 7.4): 25 µM

MIC [4, 9]: 25 µM (≈ 19.2 µg/mL) | MIC [5, 10]: 12.5 µM (≈ 9.6 µg/mL) | MIC [6]: 1.56 µM (≈ 1.2 µg/mL)
Structure (SMILES): CCCCCCCCCCCCCCCC(=O)N[C@@H](CCCCN)C(=O)N[C@@H](CCCCN)C(=O)N[C@@H](CCCCN)C(=O)N[C@@H](CCCCN)C(N)=O [PA-KKKK] (Palmitoyl-KKKK-NH2)
Minimal Inhibitory Concentration, S. aureus ATCC 6538P ([2]; ATCC 6538, pH 7.4): 25 µM | Minimal Inhibitory Concentration, P. aeruginosa ATCC 27853 ([3]; ATCC 27853, pH 7.4): 3.12 µM | Minimal Inhibitory Concentration, E. coli-D21 (E. coli D21; D21, pH 7.4): 12.5 µM

Source: patent US8445636B2, “Antimicrobial and anticancer lipopeptides” (Yeda Research & Development Co. Ltd., priority 2003, dated 2013)
